Results from ChEMBL document CHEMBL5614443, “Hybrids of 3-Hydroxypyridin-4(1H)-ones and Long-Chain 4-Aminoquinolines as Potent Biofilm Inhibitors of Pseudomonas aeruginosa Potentiate Tobramycin and Polymyxin B Activity” (J Med Chem, 2024).
Activity calls are given as the source filed them. The calls are words filed in the database; no cut-off is given here.

How the values were obtained:
Pseudomonas aeruginosa [1] = assay: Antibacterial activity against Pseudomonas aeruginosa PAO1 assessed as inhibition of bacterial growth incubated for 24 hrs by CLSI protocol based method; format: functional
Pseudomonas aeruginosa [2] = assay: Antibiofilm activity against Pseudomonas aeruginosa clinical isolate 1121 assessed as reduction in biofilm content at 10 uM incubated for 24 hrs by crystal violet staining based analysis; format: functional, organism-based
Pseudomonas aeruginosa [3] = assay: Synergistic antibacterial activity against Pseudomonas aeruginosa PAO1 assessed as fold reduction in bacterial survival rate incubated for 24 hrs in presence of ciprofloxacin by LB agar plate method; format: functional
Pseudomonas aeruginosa [4] = assay: Induction of Fe3+ chelating activity in Pseudomonas aeruginosa PAO1 assessed as increase in pyoverdine production by measuring fold change at 50 uM incubated for 24 hrs by fluorescence microplate reader
Pseudomonas aeruginosa [5] = assay: Synergistic antibacterial activity against Pseudomonas aeruginosa PAO1 assessed as reduction in cell viability at 10 to 50 uM incubated for 24 hrs in the presence of 1/4 MIC of polymyxin B by LB agar plate method; format: functional, organism-based; conditions: dose 10-50 µM
Pseudomonas aeruginosa [6] = assay: Antibacterial activity against Pseudomonas aeruginosa clinical isolate 0807 assessed as inhibition of bacterial growth incubated for 24 hrs by CLSI protocol based method; format: functional, organism-based
Pseudomonas aeruginosa [7] = assay: Antibacterial activity against Pseudomonas aeruginosa clinical isolate FB assessed as inhibition of bacterial growth incubated for 24 hrs by CLSI protocol based method; format: functional, organism-based
Pseudomonas aeruginosa [8] = assay: Synergistic antibacterial activity against Pseudomonas aeruginosa PAO1 assessed as fold reduction in bacterial survival rate incubated for 24 hrs in presence of norfloxacin by LB agar plate method; format: functional
Pseudomonas aeruginosa [9] = assay: Synergistic antibacterial activity against Pseudomonas aeruginosa PAO1 assessed as fold reduction in bacterial survival rate incubated for 24 hrs in presence of meropenem by LB agar plate method; format: functional
Pseudomonas aeruginosa [10] = assay: Synergistic antibacterial activity against Pseudomonas aeruginosa clinical isolate 0815 assessed as reduction in bacterial viability at 10 to 50 uM incubated for 24 hrs in presence of 1/4 MIC of tobramycin by LB agar plate method; format: functional, organism-based; conditions: dose 10-50 µM
Pseudomonas aeruginosa [11] = assay: Antivirulence activity in Pseudomonas aeruginosa clinical isolate 1167 assessed as reduction in rhamnolipid production at 10 uM incubated for 24 hrs by absorbance based microtiter plate reader analysis; format: functional, organism-based
Pseudomonas aeruginosa [12] = assay: Synergistic antibacterial activity against Pseudomonas aeruginosa clinical isolate 1121 assessed as reduction in bacterial viability at 10 to 50 uM incubated for 24 hrs in presence of 1/4 MIC of polymyxin B by LB agar plate method; format: functional, organism-based; conditions: dose 10-50 µM
Pseudomonas aeruginosa [13] = assay: Synergistic antibacterial activity against Pseudomonas aeruginosa clinical isolate 1167 assessed as reduction in bacterial viability at 10 to 50 uM incubated for 24 hrs in presence of 1/8 MIC of tobramycin by LB agar plate method; format: functional, organism-based; conditions: dose 10-50 µM
[14] = Cytotoxicity against African green monkey Vero cells assessed as reduction in cell viability at 200 uM incubated for 24 hrs by MTT assay; format: toxicity, cell-based; conditions: chlorocebus sabaeus
Pseudomonas aeruginosa [15] = assay: Antibacterial activity against Pseudomonas aeruginosa PA14 assessed as inhibition of bacterial growth incubated for 24 hrs by CLSI protocol based method; format: functional, organism-based
Pseudomonas aeruginosa [16] = assay: Antivirulence activity in Pseudomonas aeruginosa clinical isolate 1167 assessed as reduction in pyocyanin production at 10 uM incubated for 24 hrs by absorbance based analysis; format: functional, organism-based
Pseudomonas aeruginosa [17] = assay: Antibacterial activity against Pseudomonas aeruginosa clinical isolate 1121 assessed as inhibition of bacterial growth incubated for 24 hrs by CLSI protocol based method; format: functional, organism-based
Pseudomonas aeruginosa [18] = assay: Synergistic antibacterial activity against Pseudomonas aeruginosa clinical isolate 1167 assessed as reduction in bacterial viability at 10 to 50 uM incubated for 24 hrs in presence of 1/8 MIC of polymyxin B by LB agar plate method; format: functional, organism-based; conditions: dose 10-50 µM
[19] = Inhibition of quorum sensing system in Pseudomonas aeruginosa PAO1 transfected with mini-ctx-rhlA-lacZ reporter gene assessed as decrease in beta-galactosidase activity incubated for 6 hrs by Miller assay; conditions: dose 1.25-20 µM
[20] = Inhibition of quorum sensing system in wildtype Pseudomonas aeruginosa PAO1 assessed as inhibition of pyocyanin production incubated for 24 hrs by absorbance based analysis
Pseudomonas aeruginosa [21] = assay: Synergistic antibacterial activity against Pseudomonas aeruginosa PAO1 assessed as fold reduction in bacterial survival rate incubated for 24 hrs in presence of erythromycin by LB agar plate method; format: functional
Pseudomonas aeruginosa [22] = assay: Antivirulence activity in Pseudomonas aeruginosa clinical isolate 1121 assessed as reduction in pyocyanin production at 10 uM incubated for 24 hrs by absorbance based analysis; format: functional, organism-based
[23] = Metal chelating activity assessed as Fe3+ chelation by measuring iron chelation constant by fluorescence competition assay
[24] = Inhibition of quorum sensing system in Pseudomonas aeruginosa PAO1 transfected with mini-ctx-lasB-lacZ reporter gene assessed as decrease in beta-galactosidase activity incubated for 6 hrs by Miller assay; conditions: dose 1.25-20 µM
Pseudomonas aeruginosa [25] = assay: Antivirulence activity in Pseudomonas aeruginosa clinical isolate 1121 assessed as reduction in elastase production at 10 uM incubated for 24 hrs by elastin-congo red dye based absorbance assay; format: functional, organism-based
[26] = Inhibition of quorum sensing system in wildtype Pseudomonas aeruginosa PAO1 assessed as inhibition of rhamnolipid production incubated for 24 hrs by absorbance based microtiter plate reader analysis
Pseudomonas aeruginosa [27] = assay: Antibiofilm activity against Pseudomonas aeruginosa clinical isolate 0815 assessed as reduction in biofilm content at 10 uM incubated for 24 hrs by crystal violet staining based analysis; format: functional, organism-based
[28] = Cytotoxicity against African green monkey Vero cells assessed as reduction in cell viability at <=100 uM incubated for 24 hrs by MTT assay; format: toxicity, cell-based; conditions: chlorocebus sabaeus
Pseudomonas aeruginosa [29] = assay: Antivirulence activity in Pseudomonas aeruginosa clinical isolate 0815 assessed as reduction in pyocyanin production at 10 uM incubated for 24 hrs by absorbance based analysis; format: functional, organism-based
Pseudomonas aeruginosa [30] = assay: Synergistic antibacterial activity against Pseudomonas aeruginosa clinical isolate 1121 assessed as fold reduction in bacterial viability at 50 uM incubated for 24 hrs in presence of 1/2 MIC of tobramycin by LB agar plate method relative to tobramycin alone; format: functional
Pseudomonas aeruginosa [31] = assay: Synergistic antibacterial activity against Pseudomonas aeruginosa clinical isolate 1121 assessed as reduction in bacterial viability at 10 to 50 uM incubated for 24 hrs in presence of 1/8 MIC of polymyxin B by LB agar plate method; format: functional, organism-based; conditions: dose 10-50 µM
Pseudomonas aeruginosa [32] = assay: Synergistic antibacterial activity against Pseudomonas aeruginosa PAO1 assessed as fold reduction in bacterial survival rate incubated for 24 hrs in presence of ceftazidime by LB agar plate method; format: functional
Pseudomonas aeruginosa [33] = assay: Antivirulence activity in Pseudomonas aeruginosa clinical isolate 0815 assessed as reduction in elastase production at 10 uM incubated for 24 hrs by elastin-congo red dye based absorbance assay; format: functional, organism-based
Pseudomonas aeruginosa [34] = assay: Antibacterial activity against Pseudomonas aeruginosa clinical isolate 0815 assessed as inhibition of bacterial growth incubated for 24 hrs by CLSI protocol based method; format: functional, organism-based
Pseudomonas aeruginosa [35] = assay: Antibacterial activity against Pseudomonas aeruginosa PAO1 infected in Caenorhabditis elegans assessed as worm survival rate at 10 uM measured after 96 hrs in presence of polymyxin B at 1/2 MIC by bright field microscopic analysis relative to control; format: functional
[36] = Inhibition of quorum sensing system in Pseudomonas aeruginosa PAO1 transfected with mini-ctx-pqsA-lacZ reporter gene assessed as decrease in beta-galactosidase activity incubated for 6 hrs by Miller assay; conditions: dose 1.25-20 µM
Pseudomonas aeruginosa [37] = assay: Synergistic antibacterial activity against Pseudomonas aeruginosa PAO1 assessed as reduction in cell viability at 10 to 50 uM incubated for 24 hrs in the presence of 1/8 MIC of polymyxin B by LB agar plate method; format: functional, organism-based; conditions: dose 10-50 µM

## Cc1cc(=O)c(O)c(C(=O)NCCCCCCCCNc2ccnc3cc(Cl)ccc23)n1C.Cl
Pseudomonas aeruginosa [1]
  MIC: ≥ 512 µM
Pseudomonas aeruginosa [2]
  Activity: Active
Pseudomonas aeruginosa [3]
  fold change (FC): <10
Pseudomonas aeruginosa [4]
  fold change (FC): 16
Pseudomonas aeruginosa [5]
  Activity: Active
Pseudomonas aeruginosa [6]
  Activity: inactive
Pseudomonas aeruginosa [7]
  Activity: inactive
Pseudomonas aeruginosa [8]
  fold change (FC): <10
Pseudomonas aeruginosa [9]
  fold change (FC): <10
Pseudomonas aeruginosa [10]
  Activity: Active
Pseudomonas aeruginosa [11]
  Activity: Active
Pseudomonas aeruginosa [12]
  Activity: Active
Pseudomonas aeruginosa [13]
  Activity: Active
[14]
  Activity: Toxic
Pseudomonas aeruginosa [15]
  Activity: inactive
Pseudomonas aeruginosa [16]
  Activity: Active
Pseudomonas aeruginosa [17]
  Activity: inactive
Pseudomonas aeruginosa [18]
  Activity: Active
[19]
  inhibition: Dose-Dependent Effect
[20]
  IC50: 6.9 µM
Pseudomonas aeruginosa [21]
  fold change (FC): <10
Pseudomonas aeruginosa [22]
  Activity: Active
[23]
  pFe3+: 20.6
[24]
  inhibition: Dose-Dependent Effect
Pseudomonas aeruginosa [25]
  Activity: Active
[26]
  IC50: 39.2 µM
Pseudomonas aeruginosa [27]
  Activity: Active
[28]
  Activity: Non-Toxic
Pseudomonas aeruginosa [29]
  Activity: Active
Pseudomonas aeruginosa [30]
  fold change (FC): 15
Pseudomonas aeruginosa [31]
  Activity: Active
Pseudomonas aeruginosa [32]
  fold change (FC): <10
Pseudomonas aeruginosa [33]
  Activity: Active
Pseudomonas aeruginosa [34]
  Activity: inactive
Pseudomonas aeruginosa [35]
  survival at 10 µM: 32.1%
[36]
  inhibition: Dose-Dependent Effect
Pseudomonas aeruginosa [37]
  Activity: Active
